Experimental data from patent publication US20240360177A1, “PEPTIDES WITH ANTIMICROBIAL ACTIVITIES” (priority 2021, published 2024).
Values after ≈ are worked out from the molar mass of the structure shown. Where two headings read alike, the source gives them in different places. Non-standard residues stand in square brackets, D forms with d. Residues, ends and D or L forms follow the SMILES beside them. *: point of attachment. Cyclohexanecarbonyl = O=C(C1CCCCC1)*; hArg = N=C(N)NCCCC[C@H](N)C(=O)O; 4Pal = N[C@@H](Cc1ccncc1)C(=O)O; AEA = NCCOCC(=O)O; Ava = NCCCCC(=O)O

Key:
[1] = test system: C. albicans; settings: 24 h
[2] = test system: Scedosporium spp.; settings: 72 h
[3] = test system: C. neoformans; settings: 72 h
[4] = test system: C. glabrata; settings: 24 h
[5] = test system: C. dubliniensis; settings: 24 h
[6] = test system: C. gattii; settings: 72 h
[7] = test system: C. krusei; settings: 24 h
[8] = test system: Lomentospora prolificans
[9] = test system: C. tropicalis; settings: 24 h
[10] = test system: C. auris; settings: 24 h
[11] = test system: C. parapsilosis; settings: 24 h
[12] = test system: Candida spp.
[13] = N = 15 strains, 24 h (Table 13)
[14] = N = 15 strains, 48 h (Table 13)

| SMILES | MIC C. albicans [1] | MIC Range Scedosporium spp. [2] | MIC C. neoformans [3] | MIC C. glabrata [4] | MIC C. dubliniensis [5] | MIC C. gattii [6] | MIC C. krusei [7] | MIC Range Lomentospora prolificans [8] | MIC C. tropicalis [9] | MIC C. auris [10] | MIC C. parapsilosis [11] | Activity at 24 h MIC50 against Candida spp. ([12]; 24 h) | Activity at 24 h MIC90 against Candida spp. ([12]; 24 h) | Activity at 48 h MIC50 against Candida spp. ([12]; 48 h) | Activity at 48 h MIC90 against Candida spp. ([12]; 48 h) | Activity at 24 h MIC50 against Candida spp. [12, 13] | Activity at 24 h MIC90 against Candida spp. [12, 13] | Activity at 48 h MIC50 against Candida spp. [12, 14] | Activity at 48 h MIC90 against Candida spp. [12, 14] |
| --- | --- | --- | --- | --- | --- | --- | --- | --- | --- | --- | --- | --- | --- | --- | --- | --- | --- | --- | --- |
| N=C(N)NCCC[C@@H](N)C(=O)N[C@@H](CCCNC(=N)N)C(=O)N1CCC[C@H]1C(=O)N[C@H](CCCNC(=N)N)C(=O)N[C@@H](CCCNC(=N)N)C(=O)N[C@H](CCCNC(=N)N)C(=O)N1CCC[C@H]1C(=O)N[C@H](CCCNC(=N)N)C(=O)N[C@@H](CCCNC(=N)N)C(=O)N1CCC[C@H]1C(=O)N[C@H](CCCNC(=N)N)C(=O)N[C@@H](CCCNC(=N)N)C(=O)N[C@H](CCCNC(=N)N)C(N)=O [SEQ ID NO: 72, rR-P-rRr-P-rR-P-rRr-NH2] (H-[dR]RP[dR]R[dR]P[dR]RP[dR]R[dR]-NH2) | 2 µg/mL (≈ 1.07 µM) | 16 µg/mL (≈ 8.55 µM) | 16 µg/mL (≈ 8.55 µM) | 1 µg/mL (≈ 0.535 µM) | 2 µg/mL (≈ 1.07 µM) | 4 µg/mL (≈ 2.14 µM) | 2 µg/mL (≈ 1.07 µM) | 32 µg/mL (≈ 17.1 µM) | 0.5 µg/mL (≈ 0.267 µM) | >32 µg/mL | 0.25 µg/mL (≈ 0.134 µM) |  |  |  |  |  |  |  |  |
| N=C(N)NCCC[C@@H](N)C(=O)N[C@@H](CCCNC(=N)N)C(=O)N[C@H](CCCNC(=N)N)C(=O)N1CCC[C@H]1C(=O)N[C@H](CCCNC(=N)N)C(=O)N[C@@H](CCCNC(=N)N)C(=O)N1CCC[C@H]1C(=O)N[C@H](CCCNC(=N)N)C(=O)N[C@@H](CCCNC(=N)N)C(=O)N[C@H](CCCNC(=N)N)C(=O)N1CCC[C@H]1C(=O)N[C@H](CCCNC(=N)N)C(=O)N[C@@H](CCCNC(=N)N)C(N)=O [SEQ ID NO: 68, rRr-P-rR-P-rRr-P-rR-NH2] (H-[dR]R[dR]P[dR]RP[dR]R[dR]P[dR]R-NH2) | 0.25 µg/mL (≈ 0.134 µM) | 8 µg/mL (≈ 4.28 µM) | 8 µg/mL (≈ 4.28 µM) | 2 µg/mL (≈ 1.07 µM) | 0.5 µg/mL (≈ 0.267 µM) | 2 µg/mL (≈ 1.07 µM) | 2 µg/mL (≈ 1.07 µM) | >32 µg/mL | 1 µg/mL (≈ 0.535 µM) | >32 µg/mL | 0.5 µg/mL (≈ 0.267 µM) |  |  |  |  |  |  |  |  |
| N=C(N)NCCC[C@@H](N)C(=O)N[C@@H](CCCNC(=N)N)C(=O)N[C@H](CCCNC(=N)N)C(=O)N1CCC[C@H]1C(=O)N[C@H](CCCNC(=N)N)C(=O)N[C@@H](CCCNC(=N)N)C(=O)N[C@H](CCCNC(=N)N)C(=O)N1CCC[C@H]1C(=O)N[C@H](CCCNC(=N)N)C(=O)N[C@@H](CCCNC(=N)N)C(=O)N1CCC[C@H]1C(=O)N[C@H](CCCNC(=N)N)C(=O)N[C@@H](CCCNC(=N)N)C(N)=O [SEQ ID NO: 69, rRr-P-rRr-P-rR-P-rR-NH2] (H-[dR]R[dR]P[dR]R[dR]P[dR]RP[dR]R-NH2) | 0.25 µg/mL (≈ 0.134 µM) | 8 to 16 µg/mL | 8 µg/mL (≈ 4.28 µM) | 2 µg/mL (≈ 1.07 µM) | 0.25 µg/mL (≈ 0.134 µM) | 2 µg/mL (≈ 1.07 µM) | 1 µg/mL (≈ 0.535 µM) | 32 µg/mL (≈ 17.1 µM) | 0.5 µg/mL (≈ 0.267 µM) | >32 µg/mL | 0.5 µg/mL (≈ 0.267 µM) |  |  |  |  |  |  |  |  |
| N=C(N)NCCCC[C@H](NC(=O)[C@@H](CCCNC(=N)N)NC(=O)[C@H](CCCCNC(=N)N)NC(=O)[C@@H](CCCNC(=N)N)NC(=O)CCCCNC(=O)[C@H](CCCCNC(=N)N)NC(=O)[C@@H](CCCNC(=N)N)NC(=O)[C@H](CCCCNC(=N)N)NC(=O)[C@@H](CCCNC(=N)N)NC(=O)CCCCNC(=O)[C@@H](CCCNC(=N)N)NC(=O)[C@H](CCCCNC(=N)N)NC(=O)[C@@H](CCCNC(=N)N)NC(=O)CCCCNC(=O)[C@@H](CCCNC(=N)N)NC(=O)[C@H](CCCCNC(=N)N)NC(=O)[C@H](N)CCCNC(=N)N)C(N)=O [SEQ ID NO: 89, r(Har)r-(Ava)-r(Har)r-(Ava)-r(Har)r(Har)-(Ava)-r(Har)r(Har)-NH2] (H-[dR][hArg][dR][Ava][dR][hArg][dR][Ava][dR][hArg][dR][hArg][Ava][dR][hArg][dR][hArg]-NH2) | 1 µg/mL (≈ 0.387 µM) |  | 0.25 µg/mL (≈ 0.0967 µM) | 1 µg/mL (≈ 0.387 µM) | 1 µg/mL (≈ 0.387 µM) | 0.25 µg/mL (≈ 0.0967 µM) | 1 µg/mL (≈ 0.387 µM) |  | 1 µg/mL (≈ 0.387 µM) | 0.5 µg/mL (≈ 0.193 µM) | 0.5 µg/mL (≈ 0.193 µM) |  |  |  |  |  |  |  |  |
| N=C(N)NCCC[C@@H](N)C(=O)N[C@@H](CCCNC(=N)N)C(=O)N[C@H](CCCNC(=N)N)C(=O)N[C@@H](CCCNC(=N)N)C(=O)N[C@H](CCCNC(=N)N)C(=O)N1CCC[C@H]1C(=O)N[C@H](CCCNC(=N)N)C(=O)N[C@@H](CCCNC(=N)N)C(=O)N[C@H](CCCNC(=N)N)C(=O)N[C@@H](CCCNC(=N)N)C(=O)N[C@H](CCCNC(=N)N)C(=O)N1CCC[C@H]1C(=O)N[C@H](CCCNC(=N)N)C(=O)N[C@@H](CCCNC(=N)N)C(=O)N[C@H](CCCNC(=N)N)C(=O)N[C@@H](CCCNC(=N)N)C(N)=O [SEQ ID NO: 61, rRrRr-P-rRrRr-P-rRrR-NH2] (H-[dR]R[dR]R[dR]P[dR]R[dR]R[dR]P[dR]R[dR]R-NH2) | 0.25 µg/mL (≈ 0.104 µM) |  |  | 0.5 µg/mL (≈ 0.209 µM) | 0.25 µg/mL (≈ 0.104 µM) |  | 0.5 µg/mL (≈ 0.209 µM) |  | 0.25 µg/mL (≈ 0.104 µM) | 1 µg/mL (≈ 0.417 µM) | 0.25 µg/mL (≈ 0.104 µM) | 0.5 µg/mL | 1 µg/mL | 0.5 µg/mL | 16 µg/mL |  |  |  |  |
| N=C(N)NCCC[C@@H](N)C(=O)N[C@@H](CCCNC(=N)N)C(=O)N[C@H](CCCNC(=N)N)C(=O)N[C@H](CCCNC(=N)N)C(=O)N[C@@H](CCCNC(=N)N)C(=O)N[C@H](CCCNC(=N)N)C(=O)N[C@H](CCCNC(=N)N)C(=O)N[C@@H](CCCNC(=N)N)C(=O)N[C@H](CCCNC(=N)N)C(=O)N[C@@H](CCCNC(=N)N)C(=O)N[C@H](CCCNC(=N)N)C(=O)N[C@@H](CCCNC(=N)N)C(=O)N[C@H](CCCNC(=N)N)C(=O)N[C@@H](CCCNC(=N)N)C(N)=O [14 Polyarginine, rRrrRrrRrRrRrR-NH2, reference compound] |  |  |  |  |  |  |  |  |  |  |  |  |  |  |  | 0.5 µg/mL | 8 µg/mL | 0.5 µg/mL | >32 µg/mL |
| N=C(N)NCCC[C@H](NC(=O)[C@@H](CCCNC(=N)N)NC(=O)[C@H](CCCNC(=N)N)NC(=O)[C@@H](CCCNC(=N)N)NC(=O)[C@@H]1CCCN1C(=O)[C@H](CCCNC(=N)N)NC(=O)[C@@H](CCCNC(=N)N)NC(=O)[C@H](CCCNC(=N)N)NC(=O)[C@@H](CCCNC(=N)N)NC(=O)[C@@H]1CCCN1C(=O)[C@@H](CCCNC(=N)N)NC(=O)[C@H](CCCNC(=N)N)NC(=O)[C@@H](CCCNC(=N)N)NC(=O)[C@@H]1CCCN1C(=O)[C@@H](CCCNC(=N)N)NC(=O)[C@H](CCCNC(=N)N)NC(=O)[C@@H](CCCNC(=N)N)NC(=O)C1CCCCC1)C(N)=O [SEQ ID NO: 58, cHexC(O)NH-rRr-P-rRr-P-rRrR-P-rRrR-NH2] (Cyclohexanecarbonyl-[dR]R[dR]P[dR]R[dR]P[dR]R[dR]RP[dR]R[dR]R-NH2; N-terminus and C-terminus assumed) | 1 µg/mL (≈ 0.384 µM) |  |  | 1 µg/mL (≈ 0.384 µM) | 0.5 µg/mL (≈ 0.192 µM) |  | 2 µg/mL (≈ 0.768 µM) |  | 1 µg/mL (≈ 0.384 µM) | 1 µg/mL (≈ 0.384 µM) | 0.5 µg/mL (≈ 0.192 µM) |  |  |  |  |  |  |  |  |
| N=C(N)NCCC[C@@H](N)C(=O)N[C@@H](CCCNC(=N)N)C(=O)N[C@@H](Cc1ccncc1)C(=O)N[C@H](CCCNC(=N)N)C(=O)N[C@@H](CCCNC(=N)N)C(=O)N[C@@H](Cc1ccncc1)C(=O)N[C@H](CCCNC(=N)N)C(=O)N[C@@H](CCCNC(=N)N)C(=O)N[C@H](CCCNC(=N)N)C(=O)N[C@@H](Cc1ccncc1)C(=O)N[C@H](CCCNC(=N)N)C(=O)N[C@@H](CCCNC(=N)N)C(=O)N[C@H](CCCNC(=N)N)C(N)=O [SEQ ID NO: 78, rR-(4-PyrAla)-rR-(4-PyrAla)-rRr-(4-PyrAla)-rRr-NH2] (H-[dR]R[4Pal][dR]R[4Pal][dR]R[dR][4Pal][dR]R[dR]-NH2) | 0.5 µg/mL (≈ 0.247 µM) |  |  | 0.5 µg/mL (≈ 0.247 µM) | 0.25 µg/mL (≈ 0.124 µM) |  | 1 µg/mL (≈ 0.494 µM) |  | 0.5 µg/mL (≈ 0.247 µM) | 16 µg/mL (≈ 7.91 µM) | 0.25 µg/mL (≈ 0.124 µM) |  |  |  |  |  |  |  |  |
| N=C(N)NCCC[C@@H](N)C(=O)N[C@@H](CCCNC(=N)N)C(=O)N[C@H](CCCNC(=N)N)C(=O)NCCOCC(=O)N[C@H](CCCNC(=N)N)C(=O)N[C@@H](CCCNC(=N)N)C(=O)N[C@H](CCCNC(=N)N)C(=O)NCCOCC(=O)N[C@H](CCCNC(=N)N)C(=O)N[C@@H](CCCNC(=N)N)C(=O)N[C@H](CCCNC(=N)N)C(=O)N[C@@H](CCCNC(=N)N)C(=O)NCCOCC(=O)N[C@H](CCCNC(=N)N)C(=O)N[C@@H](CCCNC(=N)N)C(=O)N[C@H](CCCNC(=N)N)C(=O)N[C@@H](CCCNC(=N)N)C(N)=O [SEQ ID NO: 52, rRr-(Aea)-rRr-(Aea)-rRrR-(Aea)-rRrR-NH2] (H-[dR]R[dR][AEA][dR]R[dR][AEA][dR]R[dR]R[AEA][dR]R[dR]R-NH2) | 0.5 µg/mL (≈ 0.199 µM) |  |  | 0.5 µg/mL (≈ 0.199 µM) | 0.5 µg/mL (≈ 0.199 µM) |  | 0.5 µg/mL (≈ 0.199 µM) |  | 0.5 µg/mL (≈ 0.199 µM) | 1 µg/mL (≈ 0.399 µM) | 0.25 µg/mL (≈ 0.0997 µM) |  |  |  |  |  |  |  |  |
